Among the test systems are A498 renal; BT-549 breast; HCT-15 colon; HOP-62 NSCLC; LOX IMVI melanoma; MCF7 breast; MOLT-4 leukemia; OVCAR-8 ovarian; SK-MEL-5 melanoma; UACC-62 melanoma; CCRF-CEM leukemia.
Assay in all cases: NCI tumour cell line growth inhibition, 48 h

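Cultured in 96-well plates, cells were exposed to test compound for 48 hours across five concentrations. Definition used: TGI = concentration required for complete inhibition of growth.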 Where a SMILES comes first, the peptide text is derived from it. The star is where a group is joined. Cbz = O=C(OCc1ccccc1)* Some results are limits rather than exact numbers.

As for `CCOC(=O)C(C)NC(=O)C(C)NC(=O)C(C)NC(=O)C(C)NC(=O)C(C)NC(=O)C(C)NC(=O)C(C)NC(=O)OCc1ccccc1` (configuration not stated) (Cbz-AAAAAAA-OEt; configuration not given here), the TGI in the assay with A498 renal, with BT-549 breast, with HCT-15 colon, with HOP-62 NSCLC, in the assay on LOX IMVI melanoma and in the assay with MCF7 breast was over 100 µM in each case. Further, the TGI in the assay with MOLT-4 leukemia, in the assay with OVCAR-8 ovarian, in the assay with SK-MEL-5 melanoma and with UACC-62 melanoma was over 100 µM throughout.
Take `N#Cc1c(-c2ccc(Cl)cc2)c(C#N)c(=O)n(NS(=O)(=O)c2ccccc2)c1-c1ccccc1`: the TGI in the assay on A498 renal, in the assay on BT-549 breast, with CCRF-CEM leukemia, in the assay on HCT-15 colon, with HOP-62 NSCLC and in the assay with LOX IMVI melanoma was over 25 µM each time. The TGI in the assay with MCF7 breast, with MOLT-4 leukemia, with SK-MEL-5 melanoma and in the assay on UACC-62 melanoma was over 25 µM in each case.
Turning to `CC(=O)c1cn(-c2ccc(Cl)cc2)c(=O)c2c(N)n[nH]c12`, the TGI in the assay on A498 renal, with BT-549 breast, in the assay on CCRF-CEM leukemia, in the assay with HCT-15 colon, in the assay with HOP-62 NSCLC and in the assay on LOX IMVI melanoma was over 100 µM in each case. For the same compound, the TGI in the assay with MOLT-4 leukemia, in the assay with OVCAR-8 ovarian, in the assay on SK-MEL-5 melanoma and in the assay on UACC-62 melanoma was over 100 µM in each case.
With `O=C(O)CCC1(c2ccccc2)NC(=O)NC1=O` (configuration not stated), the TGI in the assay on A498 renal, in the assay on BT-549 breast, in the assay with CCRF-CEM leukemia, in the assay on HCT-15 colon, in the assay with HOP-62 NSCLC and with LOX IMVI melanoma was over 100 µM in each case. Moreover, the TGI with MCF7 breast, in the assay with OVCAR-8 ovarian, in the assay with SK-MEL-5 melanoma and in the assay with UACC-62 melanoma was over 100 µM throughout.
Consider `C=C(Cl)C(Cl)(CBr)CCC(Cl)C(C)(C)Cl` (configuration not stated), for which the TGI turned out to be 4.04 µM in the assay on A498 renal; 20.1 µM in the assay with BT-549 breast; 29.2 µM in the assay with CCRF-CEM leukemia; 14.7 µM with HCT-15 colon; 4.04 µM in the assay with HOP-62 NSCLC; 28 µM in the assay on LOX IMVI melanoma. In addition, the TGI turned out to be 3.56 µM with MCF7 breast, 53 µM in the assay with MOLT-4 leukemia, 13 µM in the assay with OVCAR-8 ovarian and 24.7 µM in the assay with SK-MEL-5 melanoma.
Regarding `CC(C)(C)OC(=O)NC(Cc1ccc([N+](=O)[O-])cc1)C(=O)NC(CCCCNC(=O)OCc1ccccc1)C(=O)ON1C(=O)CCC1=O` (configuration not stated), the TGI in the assay on A498 renal, with BT-549 breast, in the assay on HCT-15 colon, with HOP-62 NSCLC, in the assay on LOX IMVI melanoma and in the assay with MCF7 breast was over 100 µM each time. In addition, the TGI in the assay on MOLT-4 leukemia, in the assay with OVCAR-8 ovarian, in the assay on SK-MEL-5 melanoma and in the assay with UACC-62 melanoma was over 100 µM in each case.
Turning to `CC(C)(C)/C(O)=C\c1nc2cc(C(F)(F)F)ccc2[nH]c1=O`, the TGI in the assay with A498 renal is over 100 µM; in the assay on BT-549 breast it was over 100 µM; in the assay on CCRF-CEM leukemia it was 81.2 µM; in the assay on HCT-15 colon, over 100 µM; in the assay with HOP-62 NSCLC, over 100 µM; in the assay on LOX IMVI melanoma, over 100 µM. Besides, the TGI with OVCAR-8 ovarian, with SK-MEL-5 melanoma and in the assay with UACC-62 melanoma was over 100 µM each time.
As for `CC12ON=C(c3ccccc3)N1C=CN1C(c3ccccc3)=NOC12` (configuration not stated), the TGI in the assay with BT-549 breast, in the assay with HCT-15 colon, in the assay with HOP-62 NSCLC, in the assay with LOX IMVI melanoma, in the assay on MCF7 breast and in the assay on OVCAR-8 ovarian was over 100 µM each time. Further, the TGI in the assay on SK-MEL-5 melanoma and with UACC-62 melanoma was over 100 µM throughout.
For `CSCCC(NC(c1ccccc1)c1ccccc1)[P+](=O)O` (configuration not stated), the TGI in the assay with BT-549 breast, in the assay with CCRF-CEM leukemia, with HCT-15 colon, in the assay with HOP-62 NSCLC, with LOX IMVI melanoma and in the assay on MCF7 breast was over 100 µM in each case. The TGI with MOLT-4 leukemia, in the assay with OVCAR-8 ovarian, in the assay with SK-MEL-5 melanoma and in the assay with UACC-62 melanoma was over 100 µM in each case.
Regarding `COC(=O)C1=C(O)C(C(=O)OC)[C@]2(O)[C@H](C(=O)OC)[C@H]1C[C@@H](c1ccc(OC)cc1)[C@H]2C(=O)OC` (some centres not stated), the TGI in the assay on A498 renal is 34.9 µM; in the assay on BT-549 breast, over 100 µM; in the assay on HCT-15 colon, over 100 µM; with HOP-62 NSCLC, 85.1 µM; in the assay on LOX IMVI melanoma, 78.5 µM; in the assay with MCF7 breast, over 100 µM. Besides, the TGI was 68.1 µM with MOLT-4 leukemia, over 100 µM with OVCAR-8 ovarian, 55.8 µM in the assay on SK-MEL-5 melanoma and 25.8 µM with UACC-62 melanoma.
With `CCCc1c2c3ccccc3nc-2nc2ccccn12`, the TGI in the assay on A498 renal is over 100 µM; in the assay with BT-549 breast, over 100 µM; with CCRF-CEM leukemia it was over 100 µM; with HCT-15 colon it was over 100 µM; in the assay with HOP-62 NSCLC, 90.7 µM; in the assay with LOX IMVI melanoma, over 100 µM. Besides, the TGI with MOLT-4 leukemia, in the assay on OVCAR-8 ovarian, in the assay with SK-MEL-5 melanoma and with UACC-62 melanoma was over 100 µM throughout.
Regarding `NC(CCCCNc1ccn(C2OC(CO)C(O)C2O)c(=O)n1)C(=O)O` (configuration not stated), the TGI with A498 renal, in the assay on BT-549 breast, with CCRF-CEM leukemia, in the assay on HCT-15 colon, in the assay on LOX IMVI melanoma and in the assay with MCF7 breast was over 100 µM throughout. Besides, the TGI in the assay on MOLT-4 leukemia, in the assay with OVCAR-8 ovarian, with SK-MEL-5 melanoma and in the assay with UACC-62 melanoma was over 100 µM in each case.
As to `CCCCCCCCCN1CCC(=O)C(C(=O)OC)C1` (configuration not stated), the TGI was determined as 52.7 µM in the assay on A498 renal; 31.2 µM in the assay on CCRF-CEM leukemia; 26.9 µM in the assay on HCT-15 colon; 31.3 µM in the assay on HOP-62 NSCLC; 26.1 µM with LOX IMVI melanoma; 24.9 µM with MCF7 breast. Besides, the TGI in the assay on MOLT-4 leukemia amounted to 54.6 µM; in the assay on OVCAR-8 ovarian, 21 µM; in the assay on SK-MEL-5 melanoma, 33 µM; with UACC-62 melanoma, 24.9 µM.

The record behind these values is PubChem BioAssay (NCI).
